How the values were obtained:
[1] = test system: Rh30 alveolar cells xenograft; assay: Rh30 alveolar rhabdomyosarcoma orthotopic mouse xenograft, tumor growth; assay type: in vivo; settings: SCID-beige mice, 20 mg/kg IP every 3 days for 30 days, vs vehicle, n=8, p=0.0002 (Student's t-test)
Method: (§1) 2×10^6 cells in 0.2 mL total volume per mouse, from either Rh30 alveolar or RD embryonal cell lines, were injected orthotopically into the left hind leg gastrocnemius muscle of a SCID beige murine model. After 1 week, mice were assigned to control (n=8) or CCI-779 treatment groups (n=8). […] (FIG. 6C) CCI-779 was administered at 20 mg/kg/IP every 3 days for 30 days. Protein extracts from Rh30 and RD mouse xenograft tumors or uninvolved muscle were treated with CCI-779 or vehicle for 30 days and analyzed by Western blotting for S6 and 4EBP1 phosphorylation. […] 5. In vivo xenograft tumor model. Animal studies were performed in accordance with guidelines of the National Institutes of Health Animal Care and Use Committee. Female 4-6 week old beige-SCID mice were purchased from Charles River Laboratories (Wilmington, Mass.). […] Tumor growth was measured every 3 days with calipers, and tumor volume was calculated by the formula V (mm^3)=a×b^2, where a is the longest tumor axis, and b is the shortest tumor axis. […] Suppression of the mTOR pathway was monitored by measuring the phosphorylation of 4EBP1 and S6 ribosomal protein, which are well-established downstream targets of mTOR.

[2] = test system: RD embryonal cells xenograft; assay: RD embryonal rhabdomyosarcoma orthotopic mouse xenograft, tumor growth; assay type: in vivo; settings: SCID-beige mice, 20 mg/kg IP every 3 days for 30 days, vs vehicle, n=8, p=0.00008 (Student's t-test)
Method: as §1

[3] = test system: phosphorylation of 4EBP1 and S6 ribosomal protein (mTOR downstream targets); assay: Western blotting of xenograft tumor and uninvolved muscle extracts for phosphorylation of mTOR downstream targets; assay type: in vivo, mouse; settings: for phosphorylation of 4EBP1 and S6 (mTOR downstream targets): 20 mg/kg IP every 3 days for 30 days
Method: 2×10^6 cells in 0.2 mL total volume per mouse, from either Rh30 alveolar or RD embryonal cell lines, were injected orthotopically into the left hind leg gastrocnemius muscle of a SCID beige murine model. After 1 week, mice were assigned to control (n=8) or CCI-779 treatment groups (n=8). […] (FIG. 6C) CCI-779 was administered at 20 mg/kg/IP every 3 days for 30 days. Protein extracts from Rh30 and RD mouse xenograft tumors or uninvolved muscle were treated with CCI-779 or vehicle for 30 days and analyzed by Western blotting for S6 and 4EBP1 phosphorylation. […] 5. In vivo xenograft tumor model. Animal studies were performed in accordance with guidelines of the National Institutes of Health Animal Care and Use Committee. Female 4-6 week old beige-SCID mice were purchased from Charles River Laboratories (Wilmington, Mass.). Two million viable cells harvested from mid confluent cultures of either Rh30 alveolar or RD embryonal cells in 0.2 ml diluent (5% Tween-80, 5% polyethylene glycol-400 (Sigma, St. Louis, Mo.)) were injected orthotopically into the gastrocnemius muscle in the left hind leg, and after 1 week mice were randomly assigned to control (n=8) or CCI-779 treatment groups (n=8). Mice were treated IP every 3 days for 30 consecutive days with 20 mg/kg/IP of CCI-779 (Developmental Therapeutics Program, National Cancer Institute and Wyeth, Madison, N.J.) or vehicle alone. Tumor growth was measured every 3 days with calipers, and tumor volume was calculated by the formula V (mm^3)=a×b^2, where a is the longest tumor axis, and b is the shortest tumor axis. All mice were sacrificed by asphyxiation with CO2 and underwent necropsy for confirmation of tumor growth. Tumors were excised and snap frozen at -80° C. until analysis. […] Suppression of the mTOR pathway was monitored by measuring the phosphorylation of 4EBP1 and S6 ribosomal protein, which are well-established downstream targets of mTOR.

## CO[C@H]1C[C@@H]2CC[C@@H](C)[C@@](O)(O2)C(=O)C(=O)N2CCCC[C@H]2C(=O)O[C@H]([C@H](C)C[C@@H]2CC[C@@H](OC(=O)C(C)(CO)CO)[C@H](OC)C2)CC(=O)[C@H](C)/C=C(\C)[C@@H](O)[C@@H](OC)C(=O)[C@H](C)C[C@H](C)/C=C/C=C/C=C/1C [CCI-779, 40-[3-hydroxy(hydroxymethyl)methylpropanoate]-rapamycin]
[1]
  tumor growth / tumor volume measured with calipers: profoundly reduced the growth
[1]; 20 mg/kg
  tumor growth / tumor volume measured with calipers: less in the CCI-779 treatment group as compared to the vehicle alone
[2]
  tumor growth / tumor volume measured with calipers: profoundly reduced the growth
[2]; 20 mg/kg
  tumor growth / tumor volume measured with calipers: less in the CCI-779 treatment group as compared to the vehicle alone
[3]; RD embryonal xenograft derived tumors
  phosphorylation of 4EBP1 and S6 (mTOR downstream targets): inhibited the phosphorylation of these downstream targets
[3]; Rh30 alveolar xenograft derived tumors
  phosphorylation of 4EBP1 and S6 (mTOR downstream targets): inhibited the phosphorylation of these downstream targets
[3]; time dependent, non-involved muscle and tumor tissue, compared to actin (FIG. 6A)
  phosphorylation of mTOR pathway substrates pS6 Ser235/236 and 4EBP1 Thr70: inhibited phosphorylation of mTOR pathway substrates

From patent US20080255243A1, “Stat3 as a theranostic indicator” (priority 2007, published 2008)
